Results taken from the NIST ThermoML archive (doi:10.1016/j.jct.2012.12.025).
± gives the expanded uncertainty stated by the source.

experiment: wn = mass fraction of the nth substance listed; conditions: 298.15 K; 101 kPa; Liquid; Pycnometric method; w1 = 0.5

Row | Compound | mass density [kg/m3]
1 | O=C1OCCO1 [ethylene carbonate] + CCOC(=O)OCC | 1090 ± 100
2 | O=C1OCCO1 [ethylene carbonate] + COC(=O)OC | 1230 ± 100

same assay, conditions: 298.15 K; 101 kPa; Liquid; Pycnometric method; w2 = 0.5

Row | Compound | mass density [kg/m3]
3 | CCOC(=O)OC [ethyl methyl carbonate] + O=C1OCCO1 | 1190 ± 100

experiment: cn = amount concentration of the nth substance listed, in mol/dm3; conditions: 298.15 K; 101 kPa; Liquid; Pycnometric method; c1 = 1

Row | Compound | mass density [kg/m3]
4 | O=S(=O)([N-]S(=O)(=O)C(F)(F)F)C(F)(F)F.[Li+] [lithium bis((trifluoromethyl)sulfonyl)amide] + CCOC(=O)OCC | 1100 ± 100
5 | O=S(=O)([N-]S(=O)(=O)C(F)(F)F)C(F)(F)F.[Li+] [lithium bis((trifluoromethyl)sulfonyl)amide] + COC(=O)OC | 1160 ± 100
6 | O=S(=O)([N-]S(=O)(=O)C(F)(F)F)C(F)(F)F.[Li+] [lithium bis((trifluoromethyl)sulfonyl)amide] + O=C1OCCO1 | 1420 ± 100
7 | F[P-](F)(F)(F)(F)F.[Li+] [lithium hexafluorophosphate] + CCOC(=O)OC | 1090 ± 100
8 | F[P-](F)(F)(F)(F)F.[Li+] [lithium hexafluorophosphate] + CCOC(=O)OCC | 1050 ± 100
9 | F[P-](F)(F)(F)(F)F.[Li+] [lithium hexafluorophosphate] + COC(=O)OC | 1140 ± 100
10 | F[P-](F)(F)(F)(F)F.[Li+] [lithium hexafluorophosphate] + O=C1OCCO1 | 1400 ± 100

same assay, conditions: 298.15 K; 101 kPa; Liquid; Pycnometric method; c2 = 1

Row | Compound | mass density [kg/m3]
11 | CCOC(=O)OC [ethyl methyl carbonate] + O=S(=O)([N-]S(=O)(=O)C(F)(F)F)C(F)(F)F.[Li+] | 1130 ± 100

experiment: not given; conditions: 298.15 K; 101.33 kPa; Liquid; Pycnometric method

Row | Compound | mass density [kg/m3]
12 | CCOC(=O)OCC [diethyl carbonate] | 970 ± 100
13 | COC(=O)OC [dimethyl carbonate] | 1070 ± 100
14 | CCOC(=O)OC [ethyl methyl carbonate] | 1010 ± 100
15 | O=C1OCCO1 [ethylene carbonate] | 1350 ± 100
